# Experimental data from patent publication US11479568B2, “Silacrown ethers, pharmaceutical compositions thereof, and therapeutic applications thereof” (priority 2020, dated 2022).
# Experiments:
# [1] = system: vascular smooth muscle tissue; test: Vascular tissue contractile response (muscle bath, KCl-contracted tissue); type: cell-based, white New Zealand rabbits and human; conditions: cumulative 10^-8 to 10^-5 M, tissue contracted with KCl, FIG. 1 and FIG. 2
# Experimental: Ginsburg (Stanford University Medical School), crown and silacrown ethers in concentrations of 10^−8M, 10^−7 M, 10^−6 M and 10^−5M were prepared fresh daily in deionized water. The 10^−5 M concentrations were used for the preliminary screening of the ionophores for vasoactivity to determine the most promising candidates. The procedures utilized in the removal and preparation of vascular smooth muscle tissue obtained from aorta of white New Zealand rabbits and human hearts from transplant patients are well established and have been successfully utilized by the personnel at Stanford University Medical School (Cardiology Department). A computer interfaced muscle bath system designed by Dr. Robert Ginsburg and associates was used to carry out the experimental procedure. The chambers (32 per system) were filled with standard Tyrode solution (chambers maintain a constant volume of 100 ml) and aerated continuously. The tissues were placed in the chambers and connected to stainless steel hooks to a linear motion transducer and preequilibrated for 1.5 hours at a constant temperature of 37° C. (a tension of 0.5 g was maintained during the pre-equilibration period).
# A starting tension of approximately 0.5 g was achieved before adding the agonist ([…] KCl final concentration) to contract the tissues. After the contractions leveled off, the tensions were recorded before and after the crown ethers were added. To test for tissue integrity, 10^−5 M nitroglycerin was added at the end of the experiment (some relaxation should be observed), and the tension was recorded. […]
# Accumulative dose response curves were obtained by repeating the previous procedure on both human and rabbit vascular smooth muscle tissues as previously described. However, crown ether concentrations of 10^−8 M, 10^−7 M, 10^−6 M and 10^−5 M were added accumulatively instead of only one dose (10^−5 M was used to screen the crowns) and the tensions recorded for each concentration (before the next concentration of ionophore was added, the contractile tension of the tissue had leveled off).
# mice = conditions: reported by Gad et al.; cited from earlier work
# [2] = system: adult albino Sprague-Dawley rats; test: Acute oral toxicity study in rats (GLP); type: in vivo, rat
# Text: (§1) No mortality was observed during the study. […] Animals were asymptomatic by day 3. […] Thus, crown ethers and silacrown ethers of similar cavity size behave similarly, but the silacrown ethers have dramatically lower toxicity.
# [3] = Acute oral toxicity study in rats (GLP); type: in vivo, rat; conditions: rat, in vivo, adult albino Sprague-Dawley rats
# Text: as §1
Compound,contractile response of vascular smooth muscle tissue (relaxation) [1],LD50 acute oral toxicity (mice) [mg/kg],also measured
12-crown-6 [Example 12-crown-6],similar,,
"C[Si]1(C)OCCOCCOCCO1 [1,1-dimethylsila-11-crown-4]",similar,,
"C1COCCOCCOCCO1 [Example 12-crown-4, 12-crown-4]",,2830,
"C1COCCOCCOCCOCCO1 [Example 15-crown-5, 15-crown-5]",,2100,
C1CCC2OCCOCCOC3CCCCC3OCCOCCOC2C1 (stereo not drawn) [dicyclohexano-18-crown-6],,176,
C1CCC2OCCOCCOCCOC3CCCCC3OCCOCCOCCOC2C1 (stereo not drawn) [dicyclohexano-24-crown-8],,75,
C[Si]1(C)OCCOCCOCCOCCO1 [dimethylsila-14-crown-5],,,"acute oral LD50 [2]: 9,900 mg/kg"
"C[Si]1(C)OCCOCCOCCOC2CCCCC2O1 (stereo not drawn) [dimethylsila-14-cyclohexylcrown-5, Dimethylsila-14-cyclohexylcrown-5]",,,LD50 [3]: > 5000 mg/kg
C[Si]1(C)OCCOCCOCCOCCOCCO1 [dimethylsila-17-crown-6],similar,,
